# Measured values from publication PMC5797143, “Epigenetic modulation of inflammation and synaptic plasticity promotes resilience against stress in mice” (Nature Communications, 2018).
# Experiments:
# [1] = target: T1, human Ether-à-go-go-related gene (hERG) (Homo sapiens, UniProt Q12809); test: In vitro cardiotoxicity, hERG inhibition (IonWorks HT, CHO cells); format: cell-based; conditions: CHO cells stably transfected with hERG
# T1 construct: expressed in transfected cells; host or cells: CHO cells, stably transfected
# Experimental: Cardiotoxicity was assessed using CHO cells stably transfected with the hERG using the IonWorks HT instrument (Molecular Devices Corporation), which automatically performs electrophysiology measurements in 48 single cells simultaneously in a specialized 384-well plate (PatchPlate)[42]. A single-cell suspension was added to the wells of a PatchPlate to form an electrical seal at the bottom and pre-compound currents were recorded. Various concentrations of Mal-gluc or DHCA were added to the cells in four replicates for 5 min and post-compound currents were then recorded. Post-compound currents are then expressed as a percentage of pre-compound currents and plotted against concentration for each compound and IC50 was calculated.
# [2] = target: T2, 5-HT1B (serotonin receptor) (Homo sapiens, UniProt P28222); test: Radioligand binding assay; conditions: 10 µM; HEK membrane fractions; quadruplicate
# T2 construct: purchased NIMH Psychoactive Drug Screening Program (PDSP)
# Experimental: (§1) Radioligand binding assays were performed as previously described. Briefly, crude membrane fractions prepared from a stable HEK cell line expressing recombinant receptors were mixed with a radiolabeled specific ligand and 10 µM of competitor compound (DHCA, Mal-gluc, or non-specific ligand). The percentage of radioligand binding was subsequently measured.
# [3] = target: T3, D5 (dopamine receptor) (Homo sapiens, UniProt P21918); test: Radioligand binding assay; conditions: 10 µM; HEK membrane fractions; quadruplicate
# T3 construct: purchased NIMH Psychoactive Drug Screening Program (PDSP)
# Experimental: as §1
# [4] = target: T4, 5-HT2B (serotonin receptor) (Homo sapiens, UniProt P41595); test: Radioligand binding assay; conditions: 10 µM; HEK membrane fractions; quadruplicate
# T4 construct: purchased NIMH Psychoactive Drug Screening Program (PDSP)
# Experimental: as §1
# [5] = target: T5, D3 (dopamine receptor) (Homo sapiens, UniProt P35462); test: Radioligand binding assay; conditions: 10 µM; HEK membrane fractions; quadruplicate
# T5 construct: purchased NIMH Psychoactive Drug Screening Program (PDSP)
# Experimental: as §1
# [6] = target: T6, 5-HT6 (serotonin receptor) (Homo sapiens, UniProt P50406); test: Radioligand binding assay; conditions: 10 µM; HEK membrane fractions; quadruplicate
# T6 construct: purchased NIMH Psychoactive Drug Screening Program (PDSP)
# Experimental: as §1
# [7] = target: T7, D2 (dopamine receptor) (Homo sapiens, UniProt P14416); test: Radioligand binding assay; conditions: 10 µM; HEK membrane fractions; quadruplicate
# T7 construct: purchased NIMH Psychoactive Drug Screening Program (PDSP)
# Experimental: as §1
# [8] = target: T8, Beta2 (beta adrenergic receptor) (Homo sapiens, UniProt P07550); test: Radioligand binding assay; conditions: 10 µM; HEK membrane fractions; quadruplicate
# T8 construct: purchased NIMH Psychoactive Drug Screening Program (PDSP)
# Experimental: as §1
# [9] = target: T9, 5-HT3 (serotonin receptor) (Homo sapiens, UniProt P46098); test: Radioligand binding assay; conditions: for Binding activity, 5-HT3 (percentage): 10 µM, HEK membrane fractions, quadruplicate
# T9 construct: expressed in transfected cells; crude membrane fractions
# T9 sequence (P46098 24-478): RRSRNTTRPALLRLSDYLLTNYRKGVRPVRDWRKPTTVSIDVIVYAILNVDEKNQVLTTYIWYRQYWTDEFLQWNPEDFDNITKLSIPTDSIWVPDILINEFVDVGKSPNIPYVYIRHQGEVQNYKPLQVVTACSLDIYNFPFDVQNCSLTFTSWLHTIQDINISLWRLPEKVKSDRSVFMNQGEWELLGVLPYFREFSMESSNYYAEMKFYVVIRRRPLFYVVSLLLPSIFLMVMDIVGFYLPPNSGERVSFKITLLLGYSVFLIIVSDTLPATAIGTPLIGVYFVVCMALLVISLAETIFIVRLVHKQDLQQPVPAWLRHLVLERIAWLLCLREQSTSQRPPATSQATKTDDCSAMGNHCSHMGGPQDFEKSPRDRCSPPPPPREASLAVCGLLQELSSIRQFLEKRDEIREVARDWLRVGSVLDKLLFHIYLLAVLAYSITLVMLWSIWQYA
# Experimental: as §1
# [10] = target: T10, MOR (µ-opioid receptor) (Homo sapiens, UniProt P35372); test: Radioligand binding assay; conditions: 10 µM; HEK membrane fractions; quadruplicate
# T10 construct: purchased NIMH Psychoactive Drug Screening Program (PDSP)
# T10 sequence (P35372 whole entry): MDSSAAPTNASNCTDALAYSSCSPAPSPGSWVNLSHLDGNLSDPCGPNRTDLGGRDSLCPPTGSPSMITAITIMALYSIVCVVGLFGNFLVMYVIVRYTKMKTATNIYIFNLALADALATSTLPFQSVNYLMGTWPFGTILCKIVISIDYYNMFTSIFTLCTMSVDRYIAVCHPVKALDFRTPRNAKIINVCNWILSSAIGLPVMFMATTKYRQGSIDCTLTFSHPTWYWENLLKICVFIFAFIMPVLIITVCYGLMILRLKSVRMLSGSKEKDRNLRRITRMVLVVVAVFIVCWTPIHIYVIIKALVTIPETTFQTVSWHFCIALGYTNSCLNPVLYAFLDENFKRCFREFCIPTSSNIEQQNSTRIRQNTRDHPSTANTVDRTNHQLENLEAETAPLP
# Experimental: as §1
# [11] = target: T11, D4 (dopamine receptor) (Homo sapiens, UniProt P21917); test: Radioligand binding assay; conditions: 10 µM; HEK membrane fractions; quadruplicate
# T11 construct: purchased NIMH Psychoactive Drug Screening Program (PDSP)
# Experimental: as §1
# [12] = target: T12, Alpha2C (alpha adrenergic receptor) (Homo sapiens, UniProt P18825); test: Radioligand binding assay; conditions: 10 µM; HEK membrane fractions; quadruplicate
# T12 construct: purchased NIMH Psychoactive Drug Screening Program (PDSP)
# T12 sequence (P18825 whole entry): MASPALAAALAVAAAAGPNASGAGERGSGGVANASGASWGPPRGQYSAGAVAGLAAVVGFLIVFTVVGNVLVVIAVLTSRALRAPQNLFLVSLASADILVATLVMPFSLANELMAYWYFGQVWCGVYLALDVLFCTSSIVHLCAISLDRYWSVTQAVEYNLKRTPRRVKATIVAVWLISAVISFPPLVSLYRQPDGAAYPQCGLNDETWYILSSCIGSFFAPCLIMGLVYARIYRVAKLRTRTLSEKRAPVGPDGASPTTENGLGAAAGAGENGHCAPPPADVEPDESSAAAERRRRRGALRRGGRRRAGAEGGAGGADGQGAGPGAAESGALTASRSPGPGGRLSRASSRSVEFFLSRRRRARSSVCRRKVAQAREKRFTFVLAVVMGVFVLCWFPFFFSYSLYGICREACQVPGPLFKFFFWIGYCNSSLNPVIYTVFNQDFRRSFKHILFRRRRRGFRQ
# Experimental: as §1
# [13] = target: T13, 5-HT2A (serotonin receptor) (Homo sapiens, UniProt P28223); test: Radioligand binding assay; conditions: 10 µM; HEK membrane fractions; quadruplicate
# T13 construct: purchased NIMH Psychoactive Drug Screening Program (PDSP)
# Experimental: as §1
# [14] = target: T14, Alpha2A (alpha adrenergic receptor) (Homo sapiens, UniProt P08913); test: Radioligand binding assay; conditions: 10 µM; HEK membrane fractions; quadruplicate
# T14 construct: purchased NIMH Psychoactive Drug Screening Program (PDSP)
# T14 sequence (P08913 whole entry): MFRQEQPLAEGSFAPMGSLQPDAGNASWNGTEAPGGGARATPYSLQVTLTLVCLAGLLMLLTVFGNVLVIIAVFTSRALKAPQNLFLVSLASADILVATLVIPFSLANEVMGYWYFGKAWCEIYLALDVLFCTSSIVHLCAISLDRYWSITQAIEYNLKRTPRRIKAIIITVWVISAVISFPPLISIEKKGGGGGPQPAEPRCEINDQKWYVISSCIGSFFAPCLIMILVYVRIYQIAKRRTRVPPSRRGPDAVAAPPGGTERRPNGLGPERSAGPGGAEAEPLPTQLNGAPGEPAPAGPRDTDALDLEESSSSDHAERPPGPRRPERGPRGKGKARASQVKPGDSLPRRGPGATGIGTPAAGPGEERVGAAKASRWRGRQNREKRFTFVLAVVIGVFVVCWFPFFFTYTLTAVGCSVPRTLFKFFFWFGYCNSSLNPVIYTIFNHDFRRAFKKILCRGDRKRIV
# Experimental: as §1
# [15] = target: T15, M4 (muscarinic receptor) (Homo sapiens, UniProt P08173); test: Radioligand binding assay; conditions: 10 µM; HEK membrane fractions; quadruplicate
# T15 construct: purchased NIMH Psychoactive Drug Screening Program (PDSP)
# Experimental: as §1
# [16] = target: T16, 5-hT5a (serotonin receptor) (Homo sapiens, UniProt P47898); test: Radioligand binding assay; conditions: 10 µM; HEK membrane fractions; quadruplicate
# T16 construct: purchased NIMH Psychoactive Drug Screening Program (PDSP)
# T16 sequence (P47898 whole entry): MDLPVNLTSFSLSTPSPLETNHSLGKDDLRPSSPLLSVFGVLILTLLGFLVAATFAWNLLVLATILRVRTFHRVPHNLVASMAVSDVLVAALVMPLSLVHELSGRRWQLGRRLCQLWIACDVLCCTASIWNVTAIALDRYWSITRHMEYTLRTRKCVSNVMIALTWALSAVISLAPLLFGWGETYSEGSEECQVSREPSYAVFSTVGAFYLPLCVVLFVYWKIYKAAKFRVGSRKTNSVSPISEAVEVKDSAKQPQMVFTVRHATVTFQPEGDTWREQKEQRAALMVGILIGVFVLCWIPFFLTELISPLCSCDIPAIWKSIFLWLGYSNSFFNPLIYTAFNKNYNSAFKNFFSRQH
# Experimental: as §1
# [17] = target: T17, M1 (muscarinic receptor) (Homo sapiens, UniProt P11229); test: Radioligand binding assay; conditions: 10 µM; HEK membrane fractions; quadruplicate
# T17 construct: purchased NIMH Psychoactive Drug Screening Program (PDSP)
# Experimental: as §1
# [18] = target: T18, DOR (δ-opioid receptor) (Homo sapiens, UniProt P41143); test: Radioligand binding assay; conditions: 10 µM; HEK membrane fractions; quadruplicate
# T18 construct: purchased NIMH Psychoactive Drug Screening Program (PDSP)
# Experimental: as §1
# [19] = target: T19, Beta1 (beta adrenergic receptor) (Homo sapiens, UniProt P08588); test: Radioligand binding assay; conditions: 10 µM; HEK membrane fractions; quadruplicate
# T19 construct: purchased NIMH Psychoactive Drug Screening Program (PDSP)
# Experimental: as §1
# [20] = test system: PBR (peripheral benzodiazepine receptor); test: Radioligand binding assay; conditions: 10 µM; HEK membrane fractions; quadruplicate
# Experimental: as §1
# [21] = target: T20, M2 (muscarinic receptor) (Homo sapiens, UniProt P08172); test: Radioligand binding assay; conditions: 10 µM; HEK membrane fractions; quadruplicate
# T20 construct: purchased NIMH Psychoactive Drug Screening Program (PDSP)
# T20 sequence (P08172 whole entry): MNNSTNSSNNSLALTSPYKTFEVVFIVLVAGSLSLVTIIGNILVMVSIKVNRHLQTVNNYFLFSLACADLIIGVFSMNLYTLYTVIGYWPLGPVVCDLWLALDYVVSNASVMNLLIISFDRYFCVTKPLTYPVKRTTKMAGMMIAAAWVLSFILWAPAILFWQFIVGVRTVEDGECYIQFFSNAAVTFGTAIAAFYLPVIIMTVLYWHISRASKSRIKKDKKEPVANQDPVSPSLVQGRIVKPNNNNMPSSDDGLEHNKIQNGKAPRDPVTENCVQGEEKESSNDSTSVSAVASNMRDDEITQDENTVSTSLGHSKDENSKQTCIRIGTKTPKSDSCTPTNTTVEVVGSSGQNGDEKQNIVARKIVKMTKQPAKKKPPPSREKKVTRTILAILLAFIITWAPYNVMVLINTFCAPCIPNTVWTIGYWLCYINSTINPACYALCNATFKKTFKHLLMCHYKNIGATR
# Experimental: as §1
# [22] = target: T21, M3 (muscarinic receptor) (Homo sapiens, UniProt P20309); test: Radioligand binding assay; conditions: 10 µM; HEK membrane fractions; quadruplicate
# T21 construct: purchased NIMH Psychoactive Drug Screening Program (PDSP)
# Experimental: as §1
# [23] = target: T22, 5-HT7 (serotonin receptor) (Homo sapiens, UniProt P34969); test: Radioligand binding assay; conditions: 10 µM; HEK membrane fractions; quadruplicate
# T22 construct: purchased NIMH Psychoactive Drug Screening Program (PDSP)
# T22 sequence (P34969 whole entry): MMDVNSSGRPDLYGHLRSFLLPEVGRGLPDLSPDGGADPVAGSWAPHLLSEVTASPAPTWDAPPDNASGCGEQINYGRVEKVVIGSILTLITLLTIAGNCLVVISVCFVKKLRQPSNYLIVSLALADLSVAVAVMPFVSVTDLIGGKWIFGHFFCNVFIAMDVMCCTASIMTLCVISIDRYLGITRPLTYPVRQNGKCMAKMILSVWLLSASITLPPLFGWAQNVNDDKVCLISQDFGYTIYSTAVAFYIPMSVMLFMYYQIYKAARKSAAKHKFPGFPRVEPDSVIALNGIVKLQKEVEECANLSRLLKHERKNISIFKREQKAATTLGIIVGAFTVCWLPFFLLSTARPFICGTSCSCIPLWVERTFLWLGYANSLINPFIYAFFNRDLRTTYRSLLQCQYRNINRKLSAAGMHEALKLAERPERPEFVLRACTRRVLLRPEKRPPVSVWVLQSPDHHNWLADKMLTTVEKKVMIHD
# Experimental: as §1
# [24] = target: T23, SERT (serotonin transporter) (Homo sapiens, UniProt P31645); test: Radioligand binding assay; conditions: 10 µM; HEK membrane fractions; quadruplicate
# T23 construct: purchased NIMH Psychoactive Drug Screening Program (PDSP)
# T23 sequence (P31645 whole entry): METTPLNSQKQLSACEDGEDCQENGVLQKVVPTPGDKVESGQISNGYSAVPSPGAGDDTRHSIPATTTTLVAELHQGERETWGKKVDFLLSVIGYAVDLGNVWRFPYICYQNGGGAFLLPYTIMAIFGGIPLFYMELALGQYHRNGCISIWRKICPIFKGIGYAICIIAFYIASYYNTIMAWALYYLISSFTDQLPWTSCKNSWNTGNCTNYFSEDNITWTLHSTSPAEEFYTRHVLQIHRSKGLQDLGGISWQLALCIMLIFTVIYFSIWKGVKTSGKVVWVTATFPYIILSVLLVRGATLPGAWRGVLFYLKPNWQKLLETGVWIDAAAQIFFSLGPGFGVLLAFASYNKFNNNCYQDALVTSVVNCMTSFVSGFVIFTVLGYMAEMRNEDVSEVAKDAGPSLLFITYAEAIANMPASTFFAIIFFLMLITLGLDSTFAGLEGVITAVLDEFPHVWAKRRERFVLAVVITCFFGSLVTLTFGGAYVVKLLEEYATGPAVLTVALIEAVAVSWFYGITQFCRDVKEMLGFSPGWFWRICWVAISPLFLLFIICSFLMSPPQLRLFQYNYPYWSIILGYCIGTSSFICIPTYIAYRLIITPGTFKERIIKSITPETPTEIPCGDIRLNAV
# Experimental: as §1
# [25] = test system: BZP RBS (rat brain benzylpiperazine site); test: Radioligand binding assay; conditions: 10 µM; quadruplicate
# Experimental: as §1
# [26] = target: T24, Alpha1D (alpha adrenergic receptor) (Homo sapiens, UniProt P25100); test: Radioligand binding assay; conditions: 10 µM; HEK membrane fractions; quadruplicate
# T24 construct: purchased NIMH Psychoactive Drug Screening Program (PDSP)
# Experimental: as §1
# [27] = target: T25, 5-HT1D (serotonin receptor) (Homo sapiens, UniProt P28221); test: Radioligand binding assay; conditions: for Binding activity, 5-HT1D (percentage): 10 µM, HEK membrane fractions, quadruplicate
# T25 construct: expressed in transfected cells; crude membrane fractions
# T25 sequence (P28221 whole entry, species assumed): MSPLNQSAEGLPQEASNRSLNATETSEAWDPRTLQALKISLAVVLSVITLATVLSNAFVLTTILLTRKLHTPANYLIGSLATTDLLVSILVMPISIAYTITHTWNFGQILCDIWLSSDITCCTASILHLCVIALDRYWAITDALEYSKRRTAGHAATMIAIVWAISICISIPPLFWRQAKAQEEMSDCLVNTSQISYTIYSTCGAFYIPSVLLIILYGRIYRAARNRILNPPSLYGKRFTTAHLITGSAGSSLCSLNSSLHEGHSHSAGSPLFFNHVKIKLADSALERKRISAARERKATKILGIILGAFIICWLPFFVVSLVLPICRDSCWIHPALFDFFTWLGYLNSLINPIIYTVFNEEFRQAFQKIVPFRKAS
# Experimental: as §1
# [28] = target: T26, 5-HT2C (serotonin receptor) (Homo sapiens, UniProt P28335); test: Radioligand binding assay; conditions: 10 µM; HEK membrane fractions; quadruplicate
# T26 construct: purchased NIMH Psychoactive Drug Screening Program (PDSP)
# T26 sequence (P28335 33-458): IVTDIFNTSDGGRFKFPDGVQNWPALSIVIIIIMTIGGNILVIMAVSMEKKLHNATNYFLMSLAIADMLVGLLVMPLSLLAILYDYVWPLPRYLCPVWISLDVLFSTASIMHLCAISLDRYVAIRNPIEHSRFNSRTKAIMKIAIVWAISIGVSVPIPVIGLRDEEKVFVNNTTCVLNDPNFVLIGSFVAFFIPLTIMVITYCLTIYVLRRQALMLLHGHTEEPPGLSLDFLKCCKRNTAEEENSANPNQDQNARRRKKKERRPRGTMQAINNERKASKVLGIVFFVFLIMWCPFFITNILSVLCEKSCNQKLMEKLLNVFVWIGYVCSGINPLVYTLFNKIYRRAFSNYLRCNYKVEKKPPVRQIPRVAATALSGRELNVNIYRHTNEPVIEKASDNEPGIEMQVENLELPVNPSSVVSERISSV
# Experimental: as §1
# [29] = target: T27, M5 (muscarinic receptor) (Homo sapiens, UniProt P08912); test: Radioligand binding assay; conditions: 10 µM; HEK membrane fractions; quadruplicate
# T27 construct: purchased NIMH Psychoactive Drug Screening Program (PDSP)
# T27 sequence (P08912 whole entry): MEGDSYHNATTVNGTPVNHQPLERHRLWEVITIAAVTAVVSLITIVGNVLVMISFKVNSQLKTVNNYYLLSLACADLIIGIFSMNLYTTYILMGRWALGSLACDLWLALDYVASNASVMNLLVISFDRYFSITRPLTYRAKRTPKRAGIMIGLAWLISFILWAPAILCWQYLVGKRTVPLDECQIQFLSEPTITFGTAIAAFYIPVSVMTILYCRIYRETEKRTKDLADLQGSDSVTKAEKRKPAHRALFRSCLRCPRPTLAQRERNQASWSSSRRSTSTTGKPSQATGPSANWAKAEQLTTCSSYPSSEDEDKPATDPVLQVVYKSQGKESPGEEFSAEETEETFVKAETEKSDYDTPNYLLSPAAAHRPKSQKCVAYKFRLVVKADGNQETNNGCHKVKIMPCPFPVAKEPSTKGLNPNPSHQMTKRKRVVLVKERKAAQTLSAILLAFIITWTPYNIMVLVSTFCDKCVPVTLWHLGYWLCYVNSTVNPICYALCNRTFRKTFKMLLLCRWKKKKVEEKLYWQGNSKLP
# Experimental: as §1
# [30] = target: T28, 5-hT1e (serotonin receptor) (Homo sapiens, UniProt P28566); test: Radioligand binding assay; conditions: 10 µM; HEK membrane fractions; quadruplicate
# T28 construct: purchased NIMH Psychoactive Drug Screening Program (PDSP)
# T28 sequence (P28566 whole entry): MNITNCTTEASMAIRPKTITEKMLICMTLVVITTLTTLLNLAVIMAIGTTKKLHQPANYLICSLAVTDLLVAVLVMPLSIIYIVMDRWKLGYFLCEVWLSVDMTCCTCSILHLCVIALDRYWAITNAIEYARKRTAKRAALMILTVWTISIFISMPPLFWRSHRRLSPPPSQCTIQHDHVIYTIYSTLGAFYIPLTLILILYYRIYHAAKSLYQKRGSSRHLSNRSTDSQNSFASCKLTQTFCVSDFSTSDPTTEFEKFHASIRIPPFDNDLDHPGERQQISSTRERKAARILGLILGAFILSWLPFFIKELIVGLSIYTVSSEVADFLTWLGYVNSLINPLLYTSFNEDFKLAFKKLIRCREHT
# Experimental: as §1
SMILES,IC50 [1] [µM],"Binding activity, 5-HT1B (percentage) [2] [%]","Binding activity, D5 (percentage) [3] [%]","Binding activity, 5-HT2B (percentage) [4] [%]","Binding activity, D3 (percentage) [5] [%]","Binding activity, 5-HT6 (percentage) [6] [%]","Binding activity, D2 (percentage) [7] [%]","Binding activity, Beta2 (percentage) [8] [%]","Binding activity, 5-HT3 (percentage) [9] [%]","Binding activity, MOR (percentage) [10] [%]","Binding activity, D4 (percentage) [11] [%]","Binding activity, Alpha2C (percentage) [12] [%]","Binding activity, 5-HT2A (percentage) [13] [%]","Binding activity, Alpha2A (percentage) [14] [%]","Binding activity, M4 (percentage) [15] [%]","Binding activity, 5-hT5a (percentage) [16] [%]","Binding activity, M1 (percentage) [17] [%]","Binding activity, DOR (percentage) [18] [%]","Binding activity, Beta1 (percentage) [19] [%]","Binding activity, PBR (percentage) [20] [%]",other results
COc1cc(-c2[o+]c3cc(O)cc(O)c3cc2O[C@@H]2O[C@H](CO)[C@@H](O)[C@H](O)[C@H]2O)cc(OC)c1O [Mal-gluc],> 25,10.4,−2,−13.8,7.2,−18.5,7.2,1.9,74.1,−5,−2,−11,−10.5,7.3,−4.6,5.2,−6.2,−10.2,−15.5,15.7,"Ki ([9]; secondary radioligand binding assay, read-out: calculated inhibitory constant (Ki), 5-HT3): 4.3 µM; Binding activity, M2 (percentage) [21]: 5.2%; Binding activity, M3 (percentage) [22]: 23.6%; Binding activity, 5-HT7 (percentage) [23]: −13.5%; Binding activity, SERT (percentage) [24]: 7.8%; Binding activity, BZP RBS (percentage) [25]: 5.4%; Binding activity, Alpha1D (percentage) [26]: −1.3%; Binding activity, 5-HT1D (percentage) [27]: 54%; Ki ([27]; secondary radioligand binding assay, read-out: calculated inhibitory constant (Ki), 5-HT1D): > 10 µM; Binding activity, 5-HT2C (percentage) [28]: −6.9%; Binding activity, M5 (percentage) [29]: −10.2%; Binding activity, 5-hT1e (percentage) [30]: 10.3%"
"O=C(O)CCc1ccc(O)c(O)c1 [DHCA, 3(3,4-dihydroxy-phenyl) propionic acid]",> 25,−11.8,5.1,−7,−18.8,24.2,−5.7,−7.6,−11.7,−7.1,1.9,27.3,18,15.7,3,4.2,−1.8,9.5,−14.1,−13.3,"Binding activity, M2 (percentage) [21]: −12.2%; Binding activity, M3 (percentage) [22]: 9.4%; Binding activity, 5-HT7 (percentage) [23]: 4.2%; Binding activity, SERT (percentage) [24]: −0.9%; Binding activity, BZP RBS (percentage) [25]: −5.2%; Binding activity, Alpha1D (percentage) [26]: −15.4%; Binding activity, 5-HT1D (percentage) [27]: 11.7%; Binding activity, 5-HT2C (percentage) [28]: −9.9%; Binding activity, M5 (percentage) [29]: 21.2%; Binding activity, 5-hT1e (percentage) [30]: −1.7%"
